Test results taken from patent US11033547B2, “Carboxamide-pyrimidine derivatives as SHP2 antagonists” (Merck Patent GmbH, priority 2019, dated 2021).
Counter-ions that a name gives are not always drawn.

Each compound was assayed against Full length SHP2 protein (Recombinant Human SHP-2) (Homo sapiens, UniProt Q06124) (assay: SHP2 biochemical assay (DiFMUP substrate, activating peptide IRSI_2pY)). Settings: DiFMUP substrate, activating peptide IRSI_2pY, 60 min at RT; read-out: SHP-2 Biochemical assay IC50.
Method: The inhibition of SHP2 by compounds of the invention was monitored using the surrogate substrate DiFMUP after protein activation by a peptide bearing two appropriately spaced phosphotyrosine. […] The generation of the DiFMU product by activated SHP2 was monitored through Fluorescence measurement with a PerkinElmer Envision reader.
The inhibitor dose response curves were analyzed with Genedata Screener.

Chain of Full length SHP2 protein (Recombinant Human SHP-2) (Q06124 2-593 limits assumed): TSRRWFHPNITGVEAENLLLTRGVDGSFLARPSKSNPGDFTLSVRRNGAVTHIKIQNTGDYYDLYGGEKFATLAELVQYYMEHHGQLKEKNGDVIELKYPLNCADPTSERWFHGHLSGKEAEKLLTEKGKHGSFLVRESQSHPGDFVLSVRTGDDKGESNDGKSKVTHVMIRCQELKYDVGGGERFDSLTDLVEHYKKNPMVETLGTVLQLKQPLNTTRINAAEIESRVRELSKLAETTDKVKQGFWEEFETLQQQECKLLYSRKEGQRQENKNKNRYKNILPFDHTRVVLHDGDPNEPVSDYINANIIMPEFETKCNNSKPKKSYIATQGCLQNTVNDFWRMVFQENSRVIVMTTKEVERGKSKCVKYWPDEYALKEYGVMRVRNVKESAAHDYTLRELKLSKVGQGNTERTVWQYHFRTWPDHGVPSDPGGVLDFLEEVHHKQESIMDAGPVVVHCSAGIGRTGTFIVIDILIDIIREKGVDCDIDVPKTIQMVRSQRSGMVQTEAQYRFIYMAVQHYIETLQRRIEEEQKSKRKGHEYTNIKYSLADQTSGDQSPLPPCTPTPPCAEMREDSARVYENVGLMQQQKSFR

Q: For `Cc1nc(N2CCC3(CCC[C@@H]3N)C2)nc(C(N)=O)c1-c1cccc(Cl)c1Cl` (stereo in doubt) [Compound 37, 2-((S)-6-Amino-2-aza-spiro[4.4]non-2-yl)-5-(2,3-dichloro-phenyl)-6-methyl-pyrimidine-4-carboxylic acid amide], which IC50 is on record?
A: 1.1 µM

Q: With `CC1(N)CCN(c2nc(N)c(-c3cccc(F)c3)c(C(N)=O)n2)CC1` [Compound 4, 6-Amino-2-(4-amino-4-methyl-piperidin-1-yl)-5-(3-fluoro-phenyl)pyrimidine-4-carboxylic Acid Amide] as the compound, how does the IC50 read?
A: 3.7 µM

Q: With `NC(=O)c1nc(N2CC3CCCC(C2)C3N)nc(N)c1-c1cccc(Cl)c1Cl` (centres unmarked) [Compound 6, 6-amino-2-{9-amino-3-azabicyclo[3.3.1]nonan-3-yl}-5-(2,3-dichlorophenyl)pyrimidine-4-carboxamide] as the compound, how does the IC50 read?
A: 2.7 µM

Q: With `CC(C)C1N(c2nc(N)c(-c3cccc(Cl)c3Cl)c(C(N)=O)n2)CC12CC(N)C(O)C2` (centres unmarked) [Compound 10, 6-amino-2-[6-amino-7-hydroxy-1-(propan-2-yl)-2-azaspiro[3.4]octan-2-yl]-5-(2,3-dichlorophenyl)pyrimidine-4-carboxamide] as the compound, how does the IC50 read?
A: 9.6 µM

Q: How did the IC50 turn out when `NCC1CC2CCC(C1)N2c1nc(N)c(-c2cccc(Cl)c2Cl)c(C(N)=O)n1` (centres unmarked) [Compound 12, 6-amino-2-[3-(aminomethyl)-8-azabicyclo[3.2.1]octan-8-yl]-5-(2,3-dichlorophenyl)pyrimidine-4-carboxamide] was run?
A: 1.6 µM

Q: How did the IC50 turn out when `NC(=O)c1nc(N2C[C@H]3CCCCC[C@@H](C2)[C@@H]3N)nc(N)c1-c1cccc(Cl)c1Cl` [Compound 13, 6-amino-5-(2,3-dichlorophenyl)-2-[(1R,7S,11s)-11-amino-9-azabicyclo[5.3.1]undecan-9-yl]pyrimidine-4-carboxamide] was run?
A: > 10 µM

Q: Which IC50 does the source give for `CC1(N)CCN(c2nc(N)c(-c3cccc(Cl)c3Cl)c(C(=O)NCCO)n2)CC1` [Compound 17, 6-Amino-2-(4-amino-4-methyl-piperidin-1-yl)-5-(2,3-dichlorophenyl)-pyrimidine-4-carboxylic acid (2-hydroxy-ethyl)-amide] here?
A: 12 µM

Q: With `CC1(N)CCN(c2nc(Cl)c(-c3cccc(F)c3)c(C(N)=O)n2)CC1` [Compound 19, 2-(4-Amino-4-methyl-piperidin-1-yl)-6-chloro-5-(3-fluorophenyl)-pyrimidine-4-carboxylic Acid Amide] as the compound, how does the IC50 read?
A: 87 µM

Q: For `CC1(N)CCN(c2nc(N)c(-c3cccc(Cl)c3Cl)c(C(=O)NN)n2)CC1` [Compound 21, 6-Amino-2-(4-amino-4-methyl-piperidin-1-yl)-5-(2,3-dichlorophenyl)-pyrimidine-4-carboxylic Acid Hydrazide], which IC50 is on record?
A: 1.6 µM

Q: `CC1(N)CCN(c2nc(F)c(-c3cccc(F)c3)c(C(N)=O)n2)CC1` [Compound 22, 2-(4-Amino-4-methyl-piperidin-1-yl)-6-fluoro-5-(3-fluorophenyl)-pyrimidine-4-carboxylic Acid Amide] was tested. Which IC50 did it give?
A: 21 µM

Q: How did the IC50 turn out when `NCC1CN(c2nc(N)c(-c3cccc(Cl)c3Cl)c(C(N)=O)n2)CC12CCOCC2` (centres unmarked) [Compound 23, 6-amino-2-[4-(aminomethyl)-8-oxa-2-azaspiro[4.5]decan-2-yl]-5-(2,3-dichlorophenyl)pyrimidine-4-carboxamide] was run?
A: 4.7 µM

Q: For `CC1(N)CCN(c2nc(O)c(-c3cccc(F)c3)c(C(N)=O)n2)CC1` [Compound 25, 2-(4-amino-4-methylpiperidin-1-yl)-5-(3-fluorophenyl)-6-hydroxypyrimidine-4-carboxamide hydrochloride], which IC50 is on record?
A: > 10 µM

Q: How did the IC50 turn out when `Cc1nc(N2C3COCC2CC(N)C3)nc(C(N)=O)c1-c1cccc(Cl)c1Cl` (centres unmarked) [Compound 33, 2-(7-Amino-3-oxa-9-aza-bicyclo[3.3.1]non-9-yl)-5-(2,3-dichlorophenyl)-6-methyl-pyrimidine-4-carboxylic acid amide] was run?
A: 2.4 µM

Q: For `NCC1CN(c2nc(N)c(-c3cccc(Cl)c3Cl)c(C(N)=O)n2)CC12COC2` (centres unmarked) [Compound 34, 6-amino-2-[8-(aminomethyl)-2-oxa-6-azaspiro[3.4]octan-6-yl]-5-(2,3-dichloro-phenyl)pyrimidine-4-carboxamide], which IC50 is on record?
A: 1.1 µM

Q: Which IC50 does the source give for `Cc1nc(NC2CCC(CN)C2)nc(C(N)=O)c1-c1cccc(Cl)c1Cl` (centres unmarked) [Compound 36, 2-(3-Aminomethyl-cyclopentylamino)-5-(2,3-dichloro-phenyl)-6-methyl-pyrimidine-4-carboxylic acid amide] here?
A: 13 µM

Q: Which IC50 does the source give for `NC(=O)c1nc(N2CCC3(CC2)CC(N)CCO3)nc(N)c1-c1cccc(Cl)c1Cl` (centres unmarked) [Compound 38, 6-amino-2-{4-amino-1-oxa-9-azaspiro[5.5]undecan-9-yl}-5-(2,3-dichlorophenyl)pyrimidine-4-carboxamide] here?
A: 7.6 µM

Q: How did the IC50 turn out when `NC(=O)c1nc(N2CCC(C3OCCCC3N)CC2)nc(N)c1-c1cccc(Cl)c1Cl` (centres unmarked) [Compound 39, 6-amino-2-[4-(3-aminooxan-2-yl)piperidin-1-yl]-5-(2,3-dichlorophenyl)pyrimidine-4-carboxamide] was run?
A: 6.3 µM

Q: `NCC1CC2(CCN(c3nc(N)c(-c4cccc(Cl)c4Cl)c(C(N)=O)n3)CC2)CO1` (centres unmarked) [Compound 40, 6-amino-2-[3-(aminomethyl)-2-oxa-8-azaspiro[4.5]decan-8-yl]-5-(2,3-dichlorophenyl)pyrimidine-4-carboxamide] was tested. Which IC50 did it give?
A: 3.9 µM

Q: How did the IC50 turn out when `Cc1nc(N2CC3CCC(N)C3C2)nc(C(N)=O)c1-c1cccc(Cl)c1Cl` (centres unmarked) [Compound 42, 2-(4-Amino-hexahydro-cyclopenta[c]pyrrol-2-yl)-5-(2,3-dichloro-phenyl)-6-methyl-pyrimidine-4-carboxylic acid amide] was run?
A: 4.8 µM

Q: How did the IC50 turn out when `Cc1nc(NC2CCCC2CN)nc(C(N)=O)c1-c1cccc(Cl)c1Cl` (centres unmarked) [Compound 43, 2-(2-Aminomethyl-cyclopentylamino)-5-(2,3-dichloro-phenyl)-6-methyl-pyrimidine-4-carboxylic acid amide] was run?
A: 3.1 µM

Q: For `Cc1nc(N2CC(F)(CN)C2)nc(C(N)=O)c1-c1cccc(Cl)c1Cl` [Compound 44, 2-(3-Aminomethyl-3-fluoro-azetidin-1-yl)-5-(2,3-dichloro-phenyl)-6-methyl-pyrimidine-4-carboxylic acid amide], which IC50 is on record?
A: 11 µM

Q: Which IC50 does the source give for `Cc1nc(N2CCC2CN)nc(C(N)=O)c1-c1cccc(Cl)c1Cl` (centres unmarked) [Compound 46, 2-(2-Aminomethyl-azetidin-1-yl)-5-(2,3-dichloro-phenyl)-6-methyl-pyrimidine-4-carboxylic acid amide] here?
A: 5.5 µM

Q: How did the IC50 turn out when `NC(=O)c1nc(N2CC3CCCC(N)C3C2)nc(N)c1-c1cccc(Cl)c1Cl` (centres unmarked) [Compound 50, 6-amino-2-(4-amino-octahydro-1H-isoindol-2-yl)-5-(2,3-dichlorophenyl)pyrimidine-4-carboxamide] was run?
A: 10 µM

Q: Which IC50 does the source give for `NC[C@@H]1CN(c2nc(N)c(-c3cccc(Cl)c3Cl)c(C(N)=O)n2)C[C@H]1c1ccccc1` [Compound 51, 6-amino-2-[(3R,4R)-3-(aminomethyl)-4-phenylpyrrolidin-1-yl]-5-(2,3-dichlorophenyl)pyrimidine-4-carboxamide] here?
A: 1.5 µM

Q: Which IC50 does the source give for `NC(=O)c1nc(NC2CCOC3(C2)CN2CCC3CC2)nc(N)c1-c1cccc(Cl)c1Cl` (centres unmarked) [Compound 52, 6-amino-2-({4-azaspiro[bicyclo[2.2.2]octane-2,2′-oxan]-4′-yl}amino)-5-(2,3-dichlorophenyl)pyrimidine-4-carboxamide] here?
A: > 10 µM

Q: For `NCC1(O)CN(c2nc(N)c(-c3cccc(Cl)c3Cl)c(C(N)=O)n2)C1` [Compound 54, 6-amino-2-[3-(aminomethyl)-3-hydroxyazetidin-1-yl]-5-(2,3-dichlorophenyl)-pyrimidine-4-carboxamide], which IC50 is on record?
A: 7.7 µM

Q: How did the IC50 turn out when `CC1(CN)CN(c2nc(N)c(-c3cccc(Cl)c3Cl)c(C(N)=O)n2)C1` [Compound 55, 6-amino-2-[3-(aminomethyl)-3-methylazetidin-1-yl]-5-(2,3-dichlorophenyl)pyrimidine-4-carboxamide] was run?
A: 1.7 µM

Q: `Cc1nc(N2CC3CN(C)CC3C2)nc(C(N)=O)c1-c1cccc(Cl)c1Cl` (centres unmarked) [Compound 56, 5-(2,3-Dichloro-phenyl)-6-methyl-2-(5-methyl-hexahydro-pyrrolo[3,4-c]pyrrol-2-yl)-pyrimidine-4-carboxylic acid amide] was tested. Which IC50 did it give?
A: 0.96 µM

Q: For `Cc1nc(N2CC(N)(CO)C2)nc(C(N)=O)c1-c1cccc(Cl)c1Cl` [Compound 57, 2-(3-Amino-3-hydroxymethyl-azetidin-1-yl)-5-(2,3-dichloro-phenyl)-6-methyl-pyrimidine-4-carboxylic acid amide], which IC50 is on record?
A: > 10 µM

Q: `Cc1nc(N2CCC3(CC3N)C2)nc(C(N)=O)c1-c1cccc(Cl)c1Cl` (centres unmarked) [Compound 58, 2-(1-Amino-5-aza-spiro[2.4]hept-5-yl)-5-(2,3-dichloro-phenyl)-6-methyl-pyrimidine-4-carboxylic acid amide] was tested. Which IC50 did it give?
A: 4.4 µM

Q: Which IC50 does the source give for `CC1(N)CCN(c2ncc(-c3cccc4[nH]cnc34)c(C(N)=O)n2)CC1` [Compound 60, 2-(4-Amino-4-methyl-piperidin-1-yl)-5-(1H-benzoimidazol-4-yl)-pyrimidine-4-carboxylic acid amide] here?
A: > 10 µM

Q: With `CC1(N)CCN(c2ncc(-c3cccc4nonc34)c(C(N)=O)n2)CC1` [Compound 61, 2-(4-Amino-4-methyl-piperidin-1-yl)-5-benzo[1,2,5]-oxadiazol-4-yl-pyrimidine-4-carboxylic acid amide] as the compound, how does the IC50 read?
A: > 10 µM

Q: Which IC50 does the source give for `CC1(N)CCN(c2nc(N)c(-c3ccc4cn[nH]c4c3Cl)c(C(N)=O)n2)CC1` [Compound 62, 6-Amino-2-(4-amino-4-methyl-piperidin-1-yl)-5-(7-chloro-1H-indazol-6-yl)-pyrimidine-4-carboxylic acid amide] here?
A: > 10 µM

Q: Which IC50 does the source give for `NC(=O)c1nc(N[C@@H]2CCCC[C@@H]2N)nc(N)c1-c1cccc(Cl)c1Cl` [Compound 65, 6-amino-2-{[(1R,2S)-2-aminocyclohexyl]amino}-5-(2,3-dichlorophenyl)-pyrimidine-4-carboxamide] here?
A: 3.7 µM

Q: With `Cc1nc(N2CCC3CCC(C2)N3)nc(C(N)=O)c1-c1cccc(Cl)c1Cl` (centres unmarked) [Compound 68, 2-(3,9-Diaza-bicyclo[4.2.1]-non-3-yl)-5-(2,3-dichloro-phenyl)-6-methyl-pyrimidine-4-carboxylic acid amide] as the compound, how does the IC50 read?
A: 6.2 µM
